According to patent US7674771B2, “Antimicrobial peptides and utilization of the same” (Toagosei Co., Ltd, priority 2003, dated 2010):
Like-named read-outs stand apart in the source and are kept apart here. Ends that are not written are not given here.

Legend:
[1] = tested on: Escherichia coli IFO 3972; test: MIC by liquid medium dilution technique, 96-well microplate, gram-negative bacteria; assay type: cell-based; settings: for Antimicrobial Activities (MIC) E. coli: IFO 3972, 24 h
Description: (§1) Regarding the antimicrobial peptide (samples 1 to 20) related to the present invention, the antimicrobial activities (minimum inhibitory concentration: MIC) with respect to gram-negative bacteria (Escherichia coli IFO 3972) and gram-positive bacteria (Staphylococcus aureus IFO 12732) were determined by a liquid medium dilution technique using a 96-well microplate.
(§2) First, a drug (synthesized polypeptide) solution having a concentration of 40 times of the highest test concentration was prepared using sterile distilled water, and liquid-bouillon mediums (more specifically, “Mueller Hinton Broth” manufactured by DIFCO) including cation and having drug concentrations of 100, 50, 25, 12.5, 6.3, 3.1, 1.6 and 0.8 μM were respectively produced. The cation included was prepared as follows: dissolving 3.68 g of CaCl2.2H2O in 100 mL of purified water (10 mg.Ca^2+/mL), and thereafter adding 500 μL thereof into 100 mL of Mueller Hinton Broth; and dissolving 8.36 g of MgCl2.6H2O in 100 mL of purified water (10 mg.Mg^2+/mL), and thereafter adding 250 μL thereof into 100 mL of Mueller Hinton Broth. Thereafter, the produced liquid-bouillon mediums including the drug of each concentration were then fed to the 96-well microplate at […] a time.
(§3) At the same time, test bacteria cultured for 18 hours at 37° C. on an agar plate (“Muller Hinton Agar” manufactured by DIFCO) were gathered by scratching with a loop, and then suspended in a sterilized physiological saline. Bacterial suspension 5 μL prepared at an equivalent of 2×10^7 cells/mL was respectively inoculated (number of bacteria to be tested: approximately 1×10^6 cells/mL) onto the drug solution and fed to each well of the above-described microplate. After inoculation, the microplate was then incubated in an incubator at 37° C., and the presence of bacteria was evaluated based on the turbidity 24 hours later. The minimum drug concentration (polypeptide concentration), in which an increased in turbidity caused by bacteria was not detected at the time of measurement, was defined as MIC (minimum inhibitory concentration) (unit: μM) in the present embodiment. In addition, MIC were determined in the same manner using polymyxin B as a comparison.

[2] = tested on: Staphylococcus aureus IFO 12732; assay type: cell-based; settings: IFO 12732, 24 h
Description: as §1, §2, §3

S. aureus = assay type: cell-based, Staphylococcus aureus
Description: as §2, §3
Next, the antimicrobial activities (MIC) against gram-positive bacteria (S. aureus) in the presence of serum were tested with the same method as Example 2. […] Thereafter, the produced liquid-bouillon mediums including the drug and the serum of each concentration were then fed to the 96-well microplate at […] a time, and MIC were determined by the method same as Example 2. Sample X in the table is a mixture of sample 1 and sample 16 based on a mass ratio of 1:1. “-” in the table indicate “untested”.

[3] = tested on: Aspergillus niger IFO 6341; assay type: cell-based
Description: (§4) Antimicrobial activity against fungi (Aspergillus niger IFO 6341) of the antimicrobial peptides related to the present invention was tested according to a general antimycotic susceptibility test as follows.
More specifically, a slant or plate medium (“potato dextrose agar” medium manufactured by DIFCO was used typically) adhered with spores (conidia) was prepared in advance, and A. niger (IFO 6341; JIS test strain) were gathered from the medium by scratching the medium surface 4 to 5 times from bottom up with a 1 μL disposable loop and suspended in 25 mL of PBS (free of Mg, Ca) solution containing 0.05% of surfactant (Tween® 80). Thereafter, pipetting was performed using a measuring pipette or the like such that clusters of black spores disappeared completely. The spore concentration of the spore suspension prepared by such method was determined using a hemocytometer while the above-described surfactant containing PBS solution was being diluted accordingly, thereby deriving a spore suspension having a spore concentration of approximately 2.5×10^5 spores/mL.
At the same time, the above-described two polypeptides (samples 1, 3) and benzalkonium chloride serving as a comparison for antimycotic activity were dissolved in 10 mM of HEPES buffer (pH7.0) respectively to prepare stock solutions with a 2.0 mg/mL drug concentration. These were sequentially diluted to prepare various kinds of test drugs with drug (each polypeptide or benzalkonium chloride) concentrations of 400, 200, 100, 50, 25, 5 and 0.5 μg/mL.
A spore germination inhibition test and a spore growth inhibition test were performed using the above-prepared drugs and spore suspension as follows.
First, each of the above-described drugs was fed to the 96-well microplate at 40 μL a time for the spore germination inhibition test. The surplus drugs were stored in a refrigerator (4° C.) to be used for the spore growth inhibition test to be perform at a later date.
(§5) Next, a test fungus suspension was prepared by adding, with respect to 10 part by mass of the above-described spore suspension, 2 parts by mass of Alamar Blue fluorescence reagent (product of Wako Pure Chemical Industries, Ltd.) and 8 parts by mass of RPMI1640 medium containing 0.165M of MOPS, which was prepared by dissolving 5.2 g of RPMI1640 (product of Irvine Scientific) and 1.0 g of NaHCO3 in 450 mL of sterile distilled water and thereafter adding 17.12 g of MOPS and stirring, and adjusting the pH value to 7.0 by adding NaOH, and then filling up to 500 mL by adding sterile distilled water. Then, the fungus suspension was fed at 160 μL a time to the wells in which the above-described drugs were added. In addition, empty wells in which no drug was added were also fed at 160 μL a time for spore growth inhibition test. After feeding, it was cultured under a humid environment for 16 hours in an incubator at 30° C.
Twenty-four hours and 48 hours after the beginning of culturing, the colour of the mediums in the wells used for spore germination inhibition test and the wells for spore growth inhibition test were observed. Here, those in which the Alamar Blue included within the medium remain blue (oxidized form) were evaluated as positive of antimicrobial activity positive, and those that are pink (reduced form) were evaluated as negative of antimicrobial activity. Moreover, the smallest drug concentration recognized as oxidized form (blue color) was served as MIC (minimum growth inhibitory concentration) in the spore germination inhibition test and the spore growth inhibition test related to the present example.

[4] = tested on: Aspergillus niger IFO 6341; assay type: cell-based; remark: listed apart in the source
Description: as §4
More specifically, a slant or plate medium (“potato dextrose agar” medium manufactured by DIFCO was used typically) adhered with spores (conidia) was prepared in advance, and A. niger (IFO 6341; JIS test strain) were gathered from the medium by scratching the medium surface 4 to 5 times from bottom up with a 1 μL disposable loop and suspended in 25 mL of PBS (free of Mg, Ca) solution containing 0.05% of surfactant (Tween® 80). Thereafter, pipetting was performed using a measuring pipette or the like such that clusters of black spores disappeared completely. The spore concentration of the spore suspension prepared by such method was determined using a hemocytometer while the above-described surfactant containing PBS solution was being diluted accordingly, thereby deriving a spore suspension having a spore concentration of approximately 2.5×10^5 spores/mL. […]
as §5, with “Then, the fungus suspension was fed at 160 μL a time to the wells in which the above-described drugs were added. In addition, empty wells in which no drug was added were also fed at 160 μL a time for spore growth inhibition test. After feeding, it was cultured under a humid environment for 16 hours in an incubator at 30° C.” left out
Sixteen hours after the beginning of culturing, the plate was retrieve from the incubator, and the presence of generation (growth) of mycelia in each well (well that had already been fed exclusively by the above-described test drug) used for spore growth inhibition test was evaluated with a microscope. […]

[5] = tested on: methicillin-resistant Staphylococcus aureus (MRSA, No. 164 strain); test: Treatment effect test on mice infected by MRSA, bacterial count in intestine content; assay type: in vivo; settings: oral 100 mg/kg; for MRSA bacterial quantity in intestine content, administered group 1 / MRSA bacterial quantity in intestine content, administered group 2 / MRSA bacterial quantity in intestine content, administered group 3 / MRSA bacterial quantity in intestine content, administered group 4 / MRSA bacterial quantity in intestine content, administered group 5 / MRSA bacterial quantity in intestine content, Average: mice; for MRSA bacterial quantity in intestine content, administered group 1 / MRSA bacterial quantity in intestine content, administered group 2 / MRSA bacterial quantity in intestine content, administered group 3 / MRSA bacterial quantity in intestine content, administered group 4 / MRSA bacterial quantity in intestine content, administered group 5: approximately 24 hours after administration; for MRSA bacterial quantity in intestine content, Average: average of groups 1-5
Description: The following test was performed to evaluate the treatment effect on mice infected by bacterial (MRSA) of sample 22 obtained by synthesis.
Mice (ICR, SLC, male, 5 weeks old) were prepared by rearing on drinking water mixed with amphotericin B (AMPH: product of Bristol-Myers Company) and tetracycline, such that their concentrations are 10 μg/mL (AMPH) and 2000 μg/mL (tetracycline) respectively, a week before the start of the test, and the immunity of the mice was weaken by administrating 200 mg/kg amount of cyclophosphamide into the abdominal for 3 days from the fourth day prior to the test.
Bacterial suspension prepared by suspending methicillin-resistant Staphylococcus aureus (MRSA, No. 164 strain) in 10% (w/v) of mucin solution was orally administered to the mice at a bacterial administration quantity of 10^8 cells/mouse, thereby eliciting MRSA infection.
One hour after the bacterial inoculation, antimicrobial agent prepared by suspending the test material (therefore polypeptide of sample 22) in 10% of gum arabic solution was orally administered. The administered quantity of suspension was 100 mg/kg. A total of 5 test groups, with each test group containing 5 test mice, were tested. For comparison, antimicrobial agent prepared by suspending vancomycin in 10% of gum arabic solution was orally administered to the test mice under the same conditions.
After the drug administration, test mice were slaughtered approximately 24 hours later, and the contents in the intestine extracted, and the bacterial count of MRSA examined. More specifically, 1.8 mL of physiological saline was added to and mixed with approximately 0.2 g of intestine contents. A fixed quantity of such mixture was smeared on mannitol agar medium (product of Nissui Pharmaceutical Co., Ltd) including gentamicin (GM) with a concentration of […], and cultured for 3 days at 37° C.

Molecule: H-RKKKRKVLMWWMLR-NH2 [sample 1, RKKKRKVLMWWMLR-CONH2]
- Antimicrobial Activities (MIC) E. coli [1]: 6.3 µM
- antimicrobial activity against E. coli, in words ([1]; comparison stated in text on Table 2): higher antimicrobial activities
- Antimicrobial Activities (MIC) S. aureus [2]: 3.1 µM
- Antimicrobial Activities (MIC) against S. aureus, horse serum concentration 10% (S. aureus): 3.1 µM
- Antimicrobial Activities (MIC) against S. aureus, horse serum concentration 20% (S. aureus): 3.1 µM
- Antimicrobial Activities (MIC) against S. aureus, horse serum concentration 50% (S. aureus): 3.1 µM
- MIC against A. niger, spore germination inhibition test after 24 hours ([3]; IFO 6341, 24 h): 50 µg/mL
- MIC against A. niger, spore germination inhibition test after 48 hours ([3]; IFO 6341, 48 h): 50 µg/mL
- MIC against A. niger, spore growth inhibition test after 24 hours ([4]; IFO 6341, 24 h): 100 µg/mL

Molecule: CN[C@H](CC(C)C)C(=O)N[C@H]1C(=O)N[C@@H](CC(N)=O)C(=O)N[C@H]2C(=O)N[C@H]3C(=O)N[C@H](C(=O)N[C@H](C(=O)O)c4cc(O)cc(O)c4-c4cc3ccc4O)[C@H](O)c3ccc(c(Cl)c3)Oc3cc2cc(c3O[C@@H]2O[C@H](CO)[C@@H](O)[C@H](O)[C@H]2O[C@H]2C[C@](C)(N)[C@H](O)[C@H](C)O2)Oc2ccc(cc2Cl)[C@H]1O [Vancomycin, vancomycin, reference compound]
- MRSA bacterial quantity in intestine content, administered group 1 [5]: 8 ×10^3 cells/g
- MRSA bacterial quantity in intestine content, administered group 2 [5]: 10 ×10^3 cells/g
- MRSA bacterial quantity in intestine content, administered group 3 [5]: 43 ×10^3 cells/g
- MRSA bacterial quantity in intestine content, administered group 4 [5]: 22 ×10^3 cells/g
- MRSA bacterial quantity in intestine content, administered group 5 [5]: 26 ×10^3 cells/g
- MRSA bacterial quantity in intestine content, Average [5]: 22 ×10^3 cells/g

Molecule: LKRKLQRVVYWLL-CONH2 (LKRKLQRVVYWLL-NH2) [sample 22]
- MRSA bacterial quantity in intestine content, administered group 1 [5]: 36 ×10^3 cells/g
- MRSA bacterial quantity in intestine content, administered group 2 [5]: 35 ×10^3 cells/g
- MRSA bacterial quantity in intestine content, administered group 3 [5]: 30 ×10^3 cells/g
- MRSA bacterial quantity in intestine content, administered group 4 [5]: 16 ×10^3 cells/g
- MRSA bacterial quantity in intestine content, administered group 5 [5]: 26 ×10^3 cells/g
- MRSA bacterial quantity in intestine content, Average [5]: 29 ×10^3 cells/g
- treatment effect on MRSA-infected mice, in words ([5]; compared with vancomycin): exhibited the same effect as the drug including vancomycin

Molecule: benzalkonium chloride [reference compound]
- MIC against A. niger, spore germination inhibition test after 24 hours ([3]; after 24 hours): 25 µg/mL
- MIC against A. niger, spore germination inhibition test after 48 hours ([3]; after 48 hours): 25 µg/mL
- MIC against A. niger, spore growth inhibition test after 24 hours ([4]; after 24 hours): 25 µg/mL

Molecule: H-RIRKKLRLMWWML-NH2 [sample 3, RIRKKLRLMWWML-CONH2]
- Antimicrobial Activities (MIC) E. coli [1]: 6.3 µM
- Antimicrobial Activities (MIC) S. aureus [2]: 3.1 µM
- Antimicrobial Activities (MIC) against S. aureus, horse serum concentration 10% (S. aureus): 3.1 µM
- MIC against A. niger, spore germination inhibition test after 24 hours ([3]; IFO 6341, 24 h): 100 µg/mL
- MIC against A. niger, spore germination inhibition test after 48 hours ([3]; IFO 6341, 48 h): 100 µg/mL
- MIC against A. niger, spore growth inhibition test after 24 hours ([4]; IFO 6341, 24 h): 100 µg/mL
